# Measurements: patent US8946478B2, “Benzamide derivative with anticancer activity and preparation method and use thereof” (Zhejiang Hisun Pharmaceutical Co., Ltd., priority 2010, dated 2015)
# How the values were obtained:
# [1] = system: human cancer xenograft tumor models; assay: In vivo efficacy screening, summary over the xenograft models; parameters: species or system BALB/C nude mice; settings: 30 mg/kg I-1 against 80 mg/kg BSI-201, nude mouse xenografts
# Text: 5-6 week old female or male BALB/C nude mice, about 18-20 g in weight, were raised. Human cancer xenograft tumor model in nude mouse was established by the following steps: human colon cancer cell strains HCT-116 and Colo205, human breast cancer cell strain MDA-MB435, human prostate cancer cell strain BXPC-3, human ovarian cancer cell strain SKOV-3, human lung cancer cell strain A549, human pancreatic cancer cell strain PANC-1, and human uterine cancer cell strain Hela were all obtained from ATCC. […] 0.2 mL cell suspension was drawn directly by a syringe with […] and subcutaneously transplanted into the scapula part of the rear part of nude mouse's left armpit, 2×10^6/0.2 mL for each mouse, and the tumor volume was measured every 2-3 days. […]
# The mice were randomly divided into 5 groups, including negative control group (solvent), positive control group (BSI-201, 80 mg/kg), and three treatment groups with high, middle and low doses (40 mg/kg, 30 mg/kg, and 20 mg/kg respectively, wherein the high dose was below the MTD), and there were 8 nude mice in each group except that there are 16 ones in the negative control group. They were administered by intraperitoneal injection once a day for 3 consecutive weeks, during which body weight and tumor volume of the animals were detected and the death number of animals was recorded every 2 days. […]
# 18 tumor cell strains = assay: In vitro efficacy screening, summary over the tumor cell strains; assay type: cell-based, human
smiles,measurement,setting,value
"C#Cc1ccc(C(N)=O)cc1[N+](=O)[O-] [Compound I-1, 4-ethynyl-3-nitrobenzamide]",in vivo efficacy compared with BSI-201 (in words),[1],equivalent efficacy to that of 80 mg/kg BSI-201
same,efficacy relative to the positive drug BSI-201,18 tumor cell strains; in the measured 18 tumor cell strains,10 times
same,inhibitory effects on tumor cell proliferation (in words),"18 tumor cell strains; in vitro screening, BSI-201 as positive drug",have inhibitory effects on tumor cell proliferation
